Experimental data as given in US8796256B2 (Janssen Pharmaceutica NV, priority 2010, dated 2014).

Target: T1, ERR1 (also known as ERR-α or ERR-1) (Homo sapiens, UniProt P11474)
T1 sequence (P11474 193-421 limits assumed): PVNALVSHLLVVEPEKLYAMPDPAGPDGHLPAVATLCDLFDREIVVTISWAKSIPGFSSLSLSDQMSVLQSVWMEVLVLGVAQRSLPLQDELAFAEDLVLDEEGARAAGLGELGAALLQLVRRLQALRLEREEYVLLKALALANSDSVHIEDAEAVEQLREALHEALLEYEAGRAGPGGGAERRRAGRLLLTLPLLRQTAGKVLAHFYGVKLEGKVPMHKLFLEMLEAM
Assay: TR-FRET assay (disruption of co-activator peptide binding to ERR1 LBD)
Format: biochemical
Conditions: 6 nM 6His-ERR1LBD, 6 nM GST-SRC-2 peptide; average of 3 independent experiments
Method in brief: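 Homogeneous TR-FRET measuring displacement of GST-hSRC2 co-activator peptide (6 nM) from His-tagged ERR1 LBD (6 nM), detected with α-GST Eu cryptate (30 nM) and α-His-XL665 (7.5 nM). Buffer 25 mM Tris pH 8, 2.5 mM Hepes, 20 mM KCl, 1 mM DTT, 0.05 mg/mL delipidated BSA; equilibration 4-18 h at 25° C. Hyperbolic dose-response fit, mean of 3 experiments.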

SMILES	EC50
O=C1S/C(=C\c2ccc3c(cnn3Cc3ccc(Cl)cc3C(F)(F)F)c2)C(=O)N1C[C@@H]1CCCNC1 [Compound 95, (5Z)-5-({1-[4-Chloro-2-(trifluoromethyl)benzyl]-1H-indazol-5-yl}methylidene)-3-[(3R)-piperidin-3-ylmethyl]-1,3-thiazolidine-2,4-dione]	57 nM
O=C1S/C(=C\c2ccc3c(cnn3Cc3ccc(Cl)cc3C(F)(F)F)c2)C(=O)N1C[C@H]1CCCNC1 [Compound 96, (5Z)-5-({1-[4-Chloro-2-(trifluoromethyl)benzyl]-1H-indazol-5-yl}methylidene)-3-[(3S)-piperidin-3-ylmethyl]-1,3-thiazolidine-2,4-dione]	67 nM
O=C(O)CCCN1C(=O)S/C(=C\c2ccc3c(cnn3Cc3ccc(Cl)cc3C(F)(F)F)c2)C1=O [Compound 97, 4-[(5Z)-5-({1-[4-Chloro-2-(trifluoromethyl)benzyl]-1H-indazol-5-yl}methylidene)-2,4-dioxo-1,3-thiazolidin-3-yl]butanoic acid]	47 nM
O=C1S/C(=C\c2ccc3c(cnn3Cc3ccc(Cl)cc3C(F)(F)F)c2)C(=O)N1C[C@@H]1CSCCN1 [Compound 98, (5Z)-5-({1-[4-Chloro-2-(trifluoromethyl)benzyl]-1H-indazol-5-yl}methylidene)-3-[(3R)-thiomorpholin-3-ylmethyl]-1,3-thiazolidine-2,4-dione]	980 nM
N[C@H]1C[C@H](CN2C(=O)S/C(=C\c3ccc4c(cnn4Cc4ccc(Cl)cc4C(F)(F)F)c3)C2=O)C1 [Compound 100, (5Z)-3-[(trans-3-Aminocyclobutyl)methyl]-5-({1-[4-chloro-2-(trifluoromethyl)benzyl]-1H-indazol-5-yl}methylidene)-1,3-thiazolidine-2,4-dione]	46 nM
O=C1S/C(=C\c2ccc3c(cnn3Cc3ccc(Cl)cc3C(F)(F)F)c2)C(=O)N1CC1CNC1 [Compound 101, (5Z)-3-(Azetidin-3-ylmethyl)-5-({1-[4-chloro-2-(trifluoromethyl)benzyl]-1H-indazol-5-yl}methylidene)-1,3-thiazolidine-2,4-dione]	68 nM
O=C1S/C(=C\c2ccc3c(cnn3Cc3ccc(Cl)cc3C(F)(F)F)c2)C(=O)N1C1CNC1 [Compound 102, (5Z)-3-Azetidin-3-yl-5-({1-[4-chloro-2-(trifluoromethyl)benzyl]-1H-indazol-5-yl}methylidene)-1,3-thiazolidine-2,4-dione]	37 nM
N=C(N)NOCCN1C(=O)S/C(=C\c2ccc3c(cnn3Cc3ccc(C(F)(F)F)cc3C(F)(F)F)c2)C1=O [Compound 103, 1-{2-[(5Z)-5-({1-[2,4-Bis(trifluoromethyl)benzyl]-1H-indazol-5-yl}methylidene)-2,4-dioxo-1,3-thiazolidin-3-yl]ethoxy}guanidine]	43 nM
O=C1S/C(=C\c2ccc3c(cnn3Cc3ccc(Cl)cc3C(F)(F)F)c2)C(=O)N1CCN1CCCNCC1 [Compound 104, (5Z)-5-({1-[4-Chloro-2-(trifluoromethyl)benzyl]-1H-indazol-5-yl}methylidene)-3-[2-(1,4-diazepan-1-yl)ethyl]-1,3-thiazolidine-2,4-dione]	112 nM
N[C@H]1CCC[C@H](CN2C(=O)S/C(=C\c3ccc4c(cnn4Cc4ccc(Cl)cc4C(F)(F)F)c3)C2=O)C1 [Compound 105, (5Z)-3-{[(1S,3S)-3-Aminocyclohexyl]methyl}-5-({1-[4-chloro-2-(trifluoromethyl)benzyl]-1H-indazol-5-yl}methylidene)-1,3-thiazolidine-2,4-dione]	68 nM
NC[C@H]1CC[C@H](CN2C(=O)S/C(=C\c3ccc4c(cnn4Cc4ccc(Cl)cc4C(F)(F)F)c3)C2=O)CC1 [Compound 106, (5Z)-3-{[trans-4-(Aminomethyl)cyclohexyl]methyl}-5-({1-[4-chloro-2-(trifluoromethyl)benzyl]-1H-indazol-5-yl}methylidene)-1,3-thiazolidine-2,4-dione]	350 nM
N[C@@H](CN1C(=O)S/C(=C\c2ccc3c(cnn3Cc3ccc(Cl)cc3C(F)(F)F)c2)C1=O)C1CCCCC1 [Compound 107, (5Z)-3-[(2R)-2-Amino-2-cyclohexylethyl]-5-({1-[4-chloro-2-(trifluoromethyl)benzyl]-1H-indazol-5-yl}methylidene)-1,3-thiazolidine-2,4-dione]	264 nM
O=C1S/C(=C\c2ccc3c(cnn3Cc3ccc(Cl)cc3C(F)(F)F)c2)C(=O)N1CCc1ccncc1 [Compound 108, (5Z)-5-({1-[4-Chloro-2-(trifluoromethyl)benzyl]-1H-indazol-5-yl}methylidene)-3-(2-pyridin-4-ylethyl)-1,3-thiazolidine-2,4-dione]	102 nM
O=C1S/C(=C\c2ccc3c(cnn3Cc3ccc(Cl)cc3C(F)(F)F)c2)C(=O)N1CCc1cccnc1 [Compound 109, (5Z)-5-({1-[4-Chloro-2-(trifluoromethyl)benzyl]-1H-indazol-5-yl}methylidene)-3-(2-pyridin-3-ylethyl)-1,3-thiazolidine-2,4-dione]	152 nM
O=C1S/C(=C\c2ccc3c(cnn3Cc3ccc(Cl)cc3C(F)(F)F)c2)C(=O)N1CCNc1ccc([N+](=O)[O-])cn1 [Compound 110, (5Z)-5-({1-[4-Chloro-2-(trifluoromethyl)benzyl]-1H-indazol-5-yl}methylidene)-3-{2-[(5-nitropyridin-2-yl)amino]ethyl}-1,3-thiazolidine-2,4-dione]	438 nM
O=C1S/C(=C\c2ccc3c(cnn3Cc3ccc(Cl)cc3C(F)(F)F)c2)C(=O)N1C1CN2CCC1CC2 (stereo not drawn) [Compound 112, (5Z)-3-(1-Azabicyclo[2.2.2]oct-3-yl)-5-({1-[4-chloro-2-(trifluoromethyl)benzyl]-1H-indazol-5-yl}methylidene)-1,3-thiazolidine-2,4-dione]	22 nM
O=C1S/C(=C\c2ccc3c(cnn3Cc3ccc(Cl)cc3C(F)(F)F)c2)C(=O)N1C1CCNCC1 [Compound 113, (5Z)-5-({1-[4-Chloro-2-(trifluoromethyl)benzyl]-1H-indazol-5-yl}methylidene)-3-piperidin-4-yl-1,3-thiazolidine-2,4-dione]	16 nM
O=C1S/C(=C\c2ccc3c(cnn3Cc3ccc(Cl)cc3C(F)(F)F)c2)C(=O)N1[C@H]1CCNC1 [Compound 114, (5Z)-5-({1-[4-Chloro-2-(trifluoromethyl)benzyl]-1H-indazol-5-yl}methylidene)-3-[(3S)-pyrrolidin-3-yl]-1,3-thiazolidine-2,4-dione]	55 nM
O=C1S/C(=C\c2ccc3c(cnn3Cc3ccc(Cl)cc3C(F)(F)F)c2)C(=O)N1CCN1CC(O)C1 [Compound 115, (5Z)-5-({1-[4-Chloro-2-(trifluoromethyl)benzyl]-1H-indazol-5-yl}methylidene)-3-[2-(3-hydroxyazetidin-1-yl)ethyl]-1,3-thiazolidine-2,4-dione]	130 nM
O=C1S/C(=C\c2ccc3c(cnn3Cc3ccc(Cl)cc3C(F)(F)F)c2)C(=O)N1CCN1CCC(F)(F)C1 [Compound 116, (5Z)-5-({1-[4-Chloro-2-(trifluoromethyl)benzyl]-1H-indazol-5-yl}methylidene)-3-[2-(3,3-difluoropyrrolidin-1-yl)ethyl]-1,3-thiazolidine-2,4-dione]	180 nM
CC(=O)N1CCN(CCN2C(=O)S/C(=C\c3ccc4c(cnn4Cc4ccc(Cl)cc4C(F)(F)F)c3)C2=O)CC1 [Compound 117, (5Z)-3-[2-(4-Acetylpiperazin-1-yl)ethyl]-5-({1-[4-chloro-2-(trifluoromethyl)benzyl]-1H-indazol-5-yl}methylidene)-1,3-thiazolidine-2,4-dione]	86 nM
